Laboratory results reported in ChEMBL document CHEMBL4613261, “Metabolic and Pharmaceutical Aspects of Fluorinated Compounds” (J Med Chem, 2020).
In brackets after ≈: the same amount, converted by molar mass. Several values for one entry are separate records, joined by “and”; a condition that tells them apart may be missing. Equal entries are not always repeated.

How the values were obtained:
[1] = biological target: T1, MGST1 (microsomal glutathione S-transferase 1) (Rattus norvegicus, UniProt P08011); experiment: Substrate activity at MGST1 in rat liver microsomes assessed as substrate depletion at 50 uM incubated for 30 mins in presence of GSH by liquid chromatography/mass spectrometry; assay type: ADME; details: read-out: Activity
T1 sequence (P08011 whole entry): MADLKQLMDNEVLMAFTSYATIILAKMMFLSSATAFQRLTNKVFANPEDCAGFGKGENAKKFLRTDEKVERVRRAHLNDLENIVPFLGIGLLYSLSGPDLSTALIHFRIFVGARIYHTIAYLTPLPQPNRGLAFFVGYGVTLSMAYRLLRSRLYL

[2] = Lipophilicity, log P of the compound; details: octanol/water
[3] = Intrinsic clearance in human liver microsome; assay type: ADME; details: liver microsomes, read-out: CLH
[4] = Protein binding in human plasma
[5] = Aqueous solubility of the compound in pH 6.8 buffer
[6] = Substrate activity at GSTZ (unknown origin) assessed as rate of drug conversion to S-(carboxymethyl)-glutathione per mg of protein; assay type: ADME; details: human
[7] = biological target: Alanine racemase, biosynthetic (Escherichia coli K-12, UniProt P0A6B4); experiment: Substrate activity at Escherichia coli B alanine racemase assessed as partition ratio by measuring ratio of turnover rate to inactivation rate
[8] = biological target: T2, Microsomal glutathione S-transferase 1 (Rattus norvegicus, UniProt P08011); experiment: Substrate activity at MGST1 in rat liver microsomes assessed as reactivity rate at 50 uM incubated for 1 to 40 mins in presence of GSH by liquid chromatography/mass spectrometry
T2 sequence (P08011 whole entry): T1 sequence (P08011 whole entry)

[9] = Half life in human hepatocytes; assay type: ADME, cell-based, Hepatocyte
[10] = Half life in dog; assay type: ADME, Canis lupus familiaris; details: in vivo
[11] = Half life in rat; assay type: ADME; details: in vivo
[12] = Substrate activity at cytochrome p450 in phenobarbital-induced rat liver microsomes assessed as cytochrome p450-mediated-deethoxylation per mg of protein; assay type: ADME
[13] = Drug recovery in rat excreta assessed as metabolically unchanged parent compound at 100 mg/kg, po; assay type: ADME, organism-based; details: read-out: Drug recovery
[14] = Toxicity in dog; design: species or system Canis lupus familiaris; details: in vivo
[15] = biological target: T3, Maleylacetoacetate isomerase (Rattus norvegicus, UniProt P57113); experiment: Substrate activity at GSTZ1 in rat liver cytosol assessed as defluorination activity; assay type: ADME, subcellular
T3 sequence (P57113 whole entry): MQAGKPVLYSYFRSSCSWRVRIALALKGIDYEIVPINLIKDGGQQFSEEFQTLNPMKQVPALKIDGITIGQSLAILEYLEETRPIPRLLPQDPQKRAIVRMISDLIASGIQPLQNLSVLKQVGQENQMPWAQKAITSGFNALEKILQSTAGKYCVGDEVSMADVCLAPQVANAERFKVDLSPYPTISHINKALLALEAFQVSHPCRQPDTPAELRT

[16] = Substrate activity at recombinant human GSTZ1C expressed in Escherichia coli M15 assessed as rate of catalysis per mg of protein; assay type: ADME
[17] = Drug elimination in human; assay type: ADME; details: read-out: Drug excretion
[18] = biological target: Cytochrome P450 2C9 (Homo sapiens, UniProt P11712); experiment: Inhibition of CYP2C9 (unknown origin) assessed as reduction in diclofenac 4-hydroxylation; assay type: ADME
[19] = biological target: T4, Cytochrome P450 2C8 (Homo sapiens, UniProt P10632); experiment: Inhibition of CYP2C8 (unknown origin) assessed as reduction in amodiaquine N-deethylation; assay type: ADME
T4 sequence (P10632 whole entry): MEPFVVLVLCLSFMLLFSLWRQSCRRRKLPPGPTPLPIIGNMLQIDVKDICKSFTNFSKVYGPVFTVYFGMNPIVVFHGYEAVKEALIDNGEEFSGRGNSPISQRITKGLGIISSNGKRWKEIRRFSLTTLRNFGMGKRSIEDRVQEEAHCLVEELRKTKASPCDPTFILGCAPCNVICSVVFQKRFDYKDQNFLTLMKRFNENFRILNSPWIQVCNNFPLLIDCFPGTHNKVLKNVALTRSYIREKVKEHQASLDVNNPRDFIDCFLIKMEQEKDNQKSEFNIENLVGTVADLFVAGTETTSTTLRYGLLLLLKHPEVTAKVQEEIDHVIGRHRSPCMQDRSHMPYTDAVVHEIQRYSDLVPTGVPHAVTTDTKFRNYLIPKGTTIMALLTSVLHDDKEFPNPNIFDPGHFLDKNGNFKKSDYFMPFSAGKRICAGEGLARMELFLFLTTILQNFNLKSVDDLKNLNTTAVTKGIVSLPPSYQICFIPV

[20] = biological target: T5, Adenosylhomocysteinase (Rattus norvegicus, UniProt P10760); experiment: Reversible inhibition of rat liver S- adenosyl-L-homocysteine hydrolase using SAH as substrate by spectrophotometric method
T5 sequence (P10760 whole entry): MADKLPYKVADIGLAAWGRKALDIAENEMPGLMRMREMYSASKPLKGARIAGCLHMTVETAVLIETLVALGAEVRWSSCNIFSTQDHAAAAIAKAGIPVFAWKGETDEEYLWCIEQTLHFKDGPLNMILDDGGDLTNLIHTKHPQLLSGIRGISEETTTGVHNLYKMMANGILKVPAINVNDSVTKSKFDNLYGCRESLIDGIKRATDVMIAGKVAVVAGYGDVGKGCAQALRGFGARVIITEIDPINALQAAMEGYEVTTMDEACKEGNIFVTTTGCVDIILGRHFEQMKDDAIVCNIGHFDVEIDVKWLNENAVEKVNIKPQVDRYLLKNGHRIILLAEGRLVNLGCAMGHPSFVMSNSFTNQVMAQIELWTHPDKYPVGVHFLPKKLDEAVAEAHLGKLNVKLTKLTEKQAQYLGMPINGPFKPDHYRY

[21] = Lipophilicity, log P of the compound by C18 reverse phase HPLC; assay type: physicochemical
[22] = Acute toxicity in rat measured after 4 hrs; details: in vivo
[23] = Toxicity in Wistar rat measured for 6 days; details: in vivo, 144 h
[24] = system: Homo sapiens; experiment: Induction of fluoride toxicity in human assessed as fluoride level in plasma at 200 mg, po BID administered for at least 6 months (reference value: 2.54 uM); assay type: organism-based; details: in vivo

Sequence of Alanine racemase, biosynthetic (P0A6B4 whole entry): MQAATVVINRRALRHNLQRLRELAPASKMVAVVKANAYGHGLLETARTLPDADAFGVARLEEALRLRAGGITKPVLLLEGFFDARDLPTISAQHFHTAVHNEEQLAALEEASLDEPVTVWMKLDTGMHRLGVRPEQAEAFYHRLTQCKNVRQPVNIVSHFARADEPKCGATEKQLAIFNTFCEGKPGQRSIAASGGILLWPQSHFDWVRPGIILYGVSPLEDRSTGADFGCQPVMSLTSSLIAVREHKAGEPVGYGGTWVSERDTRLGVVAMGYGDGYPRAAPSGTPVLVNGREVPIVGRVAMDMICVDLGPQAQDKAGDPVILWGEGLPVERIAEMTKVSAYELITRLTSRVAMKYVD
Sequence of Cytochrome P450 2C9 (P11712 whole entry): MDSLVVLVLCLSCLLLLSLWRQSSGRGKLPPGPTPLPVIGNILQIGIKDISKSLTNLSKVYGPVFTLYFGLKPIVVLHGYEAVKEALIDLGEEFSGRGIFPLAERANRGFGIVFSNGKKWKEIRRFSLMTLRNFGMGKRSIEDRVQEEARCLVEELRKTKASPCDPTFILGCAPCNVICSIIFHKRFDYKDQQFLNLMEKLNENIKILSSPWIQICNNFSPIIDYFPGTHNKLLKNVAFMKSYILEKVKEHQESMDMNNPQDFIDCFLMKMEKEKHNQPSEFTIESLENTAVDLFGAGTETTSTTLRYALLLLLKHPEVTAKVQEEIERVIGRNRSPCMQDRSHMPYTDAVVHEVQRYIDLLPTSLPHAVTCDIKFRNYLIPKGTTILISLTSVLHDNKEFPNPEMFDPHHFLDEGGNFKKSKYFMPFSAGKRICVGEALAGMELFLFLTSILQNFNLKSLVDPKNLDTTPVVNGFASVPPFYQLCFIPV

Cc1cccnc1Cl
metabolised at 0.5 h, 50 µM [1]: 14%

Nc1nc2ccc(SC(F)(F)F)cc2s1
logP [2]: 3.6
microsomal CLint [3]: 40.9 µL/min/mg
fraction unbound [4]: 0.24
solubility ([5]; pH 6.8 buffer): 124 µM (≈ 31 µg/mL)

CC(Cl)C(=O)O (racemic)
K [6]: 1655 nmol/min

CC(Br)C(=O)O (racemic)
K [6]: 2142 nmol/min

CC(I)C(=O)O (racemic)
K [6]: 2532 nmol/min

NC(C(=O)O)C(F)(F)F (racemic)
Ratio [7]: 10

Clc1ccccn1 [2-CHLOROPYRIDINE]
Activity [8]: < 2 nmol/min/mg

N[C@H]1C[C@@H](C(=O)O)CC1=C(F)F [CPP-115 FREE BASE]
half-life [9]: 20 h
half-life [10]: 1 to 2.3 h
half-life [11]: 1 to 2.3 h

CCOc1ccc2ccc(=O)oc2c1 [ETHOXYCOUMARIN]
Activity [12]: 1.93 nmol/min

N[C@H](CF)C(=O)O [FLUDALANINE]
Ratio [7]: 810

N#Cc1c[nH]cc1-c1cccc2c1OC(F)(F)O2 [FLUDIOXONIL]
dose excreted [13]: 12%

O=C(O)CF [FLUOROACETATE]
LD [14]: 0.05 mg/kg
Activity [15]: 3%
K [16]: 210 nmol/min
K [6]: 172 nmol/min

FC(F)(F)C(Cl)Br (stereo not given) [HALOTHANE]
dose excreted [17]: 80%

Cc1ccc(NC(=O)C2(c3ccc4c(c3)OC(F)(F)O4)CC2)nc1-c1cccc(C(=O)O)c1 [LUMACAFTOR]
IC50 [18]: 32 µM
IC50 [19]: 12 µM

Nc1ncnc2c1ncn2[C@@H]1C=C(CO)[C@@H](O)[C@H]1O [NEOPLANOCIN A]
Ki [20]: 0.00839 µM

CCOc1ccc(NC(C)=O)cc1 [PHENACETIN]
Activity [12]: 3.48 nmol/min

CCOc1ccccc1 [PHENETOLE]
logP [21]: 2.96

O=[N+]([O-])c1cn2c(n1)OC[C@@H](OCc1ccc(OC(F)(F)F)cc1)C2 [PRETOMANID]
logP [2]: 2.2
microsomal CLint [3]: < 25 µL/min/mg
PPB [4]: 38%
solubility ([5]; buffer): 8 µM (≈ 2.87 µg/mL)

Nc1nc2ccc(OC(F)(F)F)cc2s1 [RILUZOLE]
microsomal CLint [3]: 38.9 µL/min/mg
PPB [4]: 85%

FC(F)=C(F)F [TETRAFLUOROETHYLENE]
Activity [22]: 40000 ppm

OCC(F)(F)F [TRIFLUOROETHANOL]
LD50 [23]: 440 mg/kg and 210 mg/kg

C[C@@H](c1ncncc1F)[C@](O)(Cn1cncn1)c1ccc(F)cc1F [VORICONAZOLE]
Activity [24]: 14.32 µM
